Assay results from patent US8546389B2 (priority 2010, dated 2013).
Read-outs that look alike come from different tables or passages of the source.

Experiments:
[1] = test system: subgenomic genotype 1a replicon cell line; experiment: HCV replicon assay, genotype 1a; assay type: cell-based, HCV genotype 1a
Procedure: (§1) A genotype 1b (Con 1) subgenomic replicon cell line based on Blight et al., Science 2000 290: 1972-1974, modified to express a Renilla luciferase reporter gene was used to assess antiviral activity of test compounds. Cell cultures were maintained in a sub-confluent state in DMEM with glutamine, 10% heat-inactivated foetal bovine serum (FBS) and G418 (Geneticin®).
(§2) For assay, cells were seeded at a density of 7000 cells/well into 96 well tissue culture trays in culture media lacking G418. Compounds were tested in a three fold dilution series, for example starting from 50 uM. After 72 hours incubation at 37° C. and 5% CO2, Renilla luciferase activity was quantified via the Promega Renilla Luciferase or Renilla-Glo™ Luciferase Assay Systems (Promega corporation. The same method was employed for replicon assays using subgenomic genotype 1a and 2a replicon cell lines with a seeding cell density of 5000 cells/well for the 2a cell lines.
(§3) The compound concentration that reduced luciferase activity by 50% (EC50) was calculated using non-linear regression.

[2] = molecular target: 1b (BK) NS5bΔ21 (Hepatitis C virus genotype 1b (isolate BK) (HCV), UniProt P26663); experiment: HCV polymerase inhibition assay, genotype 1b; assay type: biochemical, HCV genotype 1b (BK)
Summary of the method: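 Both genotype 1b and 3a enzymes assayed identically: ^33P-GTP incorporation on poly(rC) template, GTP at Km, 50 nM NS5bΔ21, pH 7.5 Tris with 5 mM MgCl2 and MnCl2, 1 h reaction ended by cold EDTA. Filter-bound label counted; IC50 fitted by non-linear regression across three-fold dilution series.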

[3] = molecular target: genotype 3a (VRL-69) NS5bΔ21 polymerase (Hepatitis C virus genotype 3a, UniProt Q81258); experiment: HCV polymerase inhibition assay, genotype 3a; assay type: biochemical, HCV genotype 3a (VRL-69)
Procedure: HCV polymerase reactions were carried out using a modified method of Howe et al., Antimicrobial Agents and Chemotherapy 2004 48(12): 4813-4821. Reactions contained a final concentration of, 0.5% DMSO, 50 nM, 1b (BK) NS5bΔ21, 20 mM Tris-HCl pH 7.5, 5 mM MgCl2, 5 mM MnCl2, 3 mM DTT, 0.05% BSA, 0.2 U/μL RNasin, 10 μg/mL Poly(rC) template, GTP (at Km) and 0.05 μCi/μL ^33P-GTP in a total reaction volume of 50 μL. Compounds were tested in a three fold dilution series, for example starting from 50 μM. Reactions were initiated with the addition of GTP and terminated after 1 hour with 50 μL ice cold 0.2 M EDTA. Terminated reactions were transferred to DEAE 96-well filter plates, unincorporated nucleotides washed from the filters and 50 μL scintillation fluid added prior to reading on a scintillation counter. Similarly, a genotype 3a (VRL-69) NS5bΔ21 polymerase enzyme assay was conducted using essentially the same method.
The compound concentration that reduced ^33P-GTP incorporation by 50% (IC50) was calculated using non-linear regression.

[4] = test system: subgenomic genotype 2a replicon cell line; experiment: HCV replicon assay, genotype 2a; assay type: cell-based, HCV genotype 2a
Procedure: as §1, §2, §3

[5] = test system: genotype 1b (Con 1) subgenomic replicon cell line; experiment: HCV replicon assay, genotype 1b (Renilla luciferase); assay type: cell-based, HCV genotype 1b (Con 1); conditions: genotype 1b replicon
Summary of the method: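 Subgenomic replicon cells expressing Renilla luciferase (1b Con1; 1a and 2a lines by the same method) seeded at 7000 cells/well (5000 for 2a) without G418, exposed to 3-fold compound dilutions for 72 h at 37 °C. Luciferase activity measured; EC50 by non-linear regression.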

[6] = genotype 1b, read-out: 1b NS5b polymerase IC50
[7] = genotype 3a, read-out: 3a NS5b polymerase IC50
[8] = 1b (BK) NS5bΔ21, 33P-GTP incorporation, read-out: 1b polymerase IC50 (range class)
[9] = Hepatitis C virus, 72 hours, luciferase, read-out: genotype 1b EC50 (range class)
[10] = Hepatitis C virus, read-out: Replicon 1b EC50

Sequence of 1b (BK) NS5bΔ21 (P26663 2420-2989): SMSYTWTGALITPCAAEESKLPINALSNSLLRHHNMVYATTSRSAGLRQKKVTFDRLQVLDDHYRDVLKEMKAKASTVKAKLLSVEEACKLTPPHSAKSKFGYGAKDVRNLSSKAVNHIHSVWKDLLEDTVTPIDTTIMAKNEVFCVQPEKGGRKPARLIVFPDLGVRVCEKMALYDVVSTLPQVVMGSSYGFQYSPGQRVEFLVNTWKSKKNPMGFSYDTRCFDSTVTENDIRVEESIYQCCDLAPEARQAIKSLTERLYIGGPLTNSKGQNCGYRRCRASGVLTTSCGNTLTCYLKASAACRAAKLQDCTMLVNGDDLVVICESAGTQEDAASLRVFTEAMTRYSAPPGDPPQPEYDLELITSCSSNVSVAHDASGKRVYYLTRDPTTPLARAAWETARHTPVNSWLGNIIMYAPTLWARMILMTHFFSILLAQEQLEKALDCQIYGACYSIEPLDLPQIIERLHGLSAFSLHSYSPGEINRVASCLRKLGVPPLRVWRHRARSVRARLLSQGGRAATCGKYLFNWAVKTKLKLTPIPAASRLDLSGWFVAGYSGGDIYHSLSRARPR
Sequence of genotype 3a (VRL-69) NS5bΔ21 polymerase (Q81258 whole entry, looked up, stated change not applied): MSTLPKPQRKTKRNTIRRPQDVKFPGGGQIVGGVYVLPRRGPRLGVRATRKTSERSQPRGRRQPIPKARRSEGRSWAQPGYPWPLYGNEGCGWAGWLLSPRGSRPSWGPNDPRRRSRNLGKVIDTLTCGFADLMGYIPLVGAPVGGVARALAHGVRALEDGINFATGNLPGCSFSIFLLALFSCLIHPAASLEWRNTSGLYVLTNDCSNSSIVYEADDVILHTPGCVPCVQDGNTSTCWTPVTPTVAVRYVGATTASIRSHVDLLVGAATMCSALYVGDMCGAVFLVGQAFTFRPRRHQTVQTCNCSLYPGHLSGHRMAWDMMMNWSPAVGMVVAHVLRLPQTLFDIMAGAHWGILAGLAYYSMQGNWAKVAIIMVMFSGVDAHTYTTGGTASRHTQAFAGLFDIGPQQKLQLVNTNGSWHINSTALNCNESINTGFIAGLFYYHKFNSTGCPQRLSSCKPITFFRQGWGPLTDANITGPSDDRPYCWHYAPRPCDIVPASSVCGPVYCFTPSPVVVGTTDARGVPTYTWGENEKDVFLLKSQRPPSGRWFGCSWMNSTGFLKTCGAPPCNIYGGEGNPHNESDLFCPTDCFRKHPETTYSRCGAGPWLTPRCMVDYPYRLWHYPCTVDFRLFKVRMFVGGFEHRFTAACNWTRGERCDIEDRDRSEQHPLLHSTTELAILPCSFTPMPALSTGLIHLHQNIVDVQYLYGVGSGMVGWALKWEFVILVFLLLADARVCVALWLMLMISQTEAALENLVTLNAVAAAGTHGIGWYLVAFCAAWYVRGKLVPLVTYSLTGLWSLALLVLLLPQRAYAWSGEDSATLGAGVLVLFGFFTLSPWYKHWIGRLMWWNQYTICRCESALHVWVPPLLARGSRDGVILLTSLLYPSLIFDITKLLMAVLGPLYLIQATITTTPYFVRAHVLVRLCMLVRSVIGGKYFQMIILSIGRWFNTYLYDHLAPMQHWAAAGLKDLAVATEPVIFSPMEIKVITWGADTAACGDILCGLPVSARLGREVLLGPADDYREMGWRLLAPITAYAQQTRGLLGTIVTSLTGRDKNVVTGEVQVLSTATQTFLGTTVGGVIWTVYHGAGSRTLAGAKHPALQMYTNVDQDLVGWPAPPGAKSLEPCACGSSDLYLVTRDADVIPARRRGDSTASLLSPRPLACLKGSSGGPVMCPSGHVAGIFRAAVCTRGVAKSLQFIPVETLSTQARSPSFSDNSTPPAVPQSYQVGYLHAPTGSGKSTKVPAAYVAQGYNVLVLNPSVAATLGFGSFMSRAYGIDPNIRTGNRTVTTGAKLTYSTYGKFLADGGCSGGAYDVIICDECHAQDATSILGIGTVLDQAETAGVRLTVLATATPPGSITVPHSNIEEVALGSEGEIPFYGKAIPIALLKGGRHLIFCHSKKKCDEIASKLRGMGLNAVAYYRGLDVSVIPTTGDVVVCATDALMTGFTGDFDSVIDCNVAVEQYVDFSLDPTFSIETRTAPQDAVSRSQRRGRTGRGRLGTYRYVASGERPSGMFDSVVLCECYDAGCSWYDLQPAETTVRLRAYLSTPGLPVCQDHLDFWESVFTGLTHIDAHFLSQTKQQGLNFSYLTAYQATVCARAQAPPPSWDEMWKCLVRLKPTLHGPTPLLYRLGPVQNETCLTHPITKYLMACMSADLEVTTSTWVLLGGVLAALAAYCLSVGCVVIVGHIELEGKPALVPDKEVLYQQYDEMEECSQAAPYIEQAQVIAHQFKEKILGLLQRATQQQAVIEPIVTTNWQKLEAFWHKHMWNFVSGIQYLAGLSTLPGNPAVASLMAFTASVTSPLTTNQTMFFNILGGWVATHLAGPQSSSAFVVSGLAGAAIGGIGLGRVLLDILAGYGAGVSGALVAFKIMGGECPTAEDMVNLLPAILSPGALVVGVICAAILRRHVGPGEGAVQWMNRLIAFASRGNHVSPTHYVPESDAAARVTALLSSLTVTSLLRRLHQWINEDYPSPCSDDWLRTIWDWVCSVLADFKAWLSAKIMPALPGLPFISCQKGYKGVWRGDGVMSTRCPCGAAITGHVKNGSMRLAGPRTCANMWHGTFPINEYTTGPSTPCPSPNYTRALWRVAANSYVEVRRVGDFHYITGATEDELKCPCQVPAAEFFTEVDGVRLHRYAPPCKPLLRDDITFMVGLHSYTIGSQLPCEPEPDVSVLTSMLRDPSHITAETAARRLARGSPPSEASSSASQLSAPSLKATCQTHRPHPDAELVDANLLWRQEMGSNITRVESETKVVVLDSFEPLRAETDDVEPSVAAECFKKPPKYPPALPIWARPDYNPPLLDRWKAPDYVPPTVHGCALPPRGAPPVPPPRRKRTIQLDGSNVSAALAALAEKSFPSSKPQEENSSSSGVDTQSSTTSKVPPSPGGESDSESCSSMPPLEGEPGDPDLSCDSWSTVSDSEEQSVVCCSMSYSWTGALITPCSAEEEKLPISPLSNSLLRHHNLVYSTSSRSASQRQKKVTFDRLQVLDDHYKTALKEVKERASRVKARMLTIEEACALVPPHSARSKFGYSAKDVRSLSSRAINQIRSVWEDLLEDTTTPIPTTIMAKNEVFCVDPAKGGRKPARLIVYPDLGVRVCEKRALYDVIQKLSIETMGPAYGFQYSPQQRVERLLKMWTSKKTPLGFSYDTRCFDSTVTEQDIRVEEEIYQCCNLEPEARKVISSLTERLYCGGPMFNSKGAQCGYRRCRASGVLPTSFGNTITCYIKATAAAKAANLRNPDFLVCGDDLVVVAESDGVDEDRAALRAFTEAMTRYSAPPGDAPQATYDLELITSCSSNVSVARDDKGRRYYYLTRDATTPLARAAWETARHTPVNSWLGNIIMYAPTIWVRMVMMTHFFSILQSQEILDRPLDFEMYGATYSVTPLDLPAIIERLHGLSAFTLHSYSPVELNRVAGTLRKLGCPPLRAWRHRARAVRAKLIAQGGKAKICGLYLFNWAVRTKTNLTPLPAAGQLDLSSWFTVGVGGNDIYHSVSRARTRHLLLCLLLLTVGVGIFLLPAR

Structure (SMILES)	EC50 [1] [nM]	IC50 [2, 6] [nM]	IC50 [3, 7] [nM]	EC50 [4] [nM]	EC50 ([5]; read-out: Replicon 1b EC50) [nM]	EC50 ([1]; Hepatitis C virus) [nM]	IC50 [2, 8] [nM]	EC50 ([4]; Hepatitis C virus) [nM]	EC50 [5, 9] [nM]	EC50 [5, 10] [nM]	IC50 [3] [nM]
CNC(=O)c1c2cc(C3CC3)c(N(CCCNC(=O)C3CCC3)S(C)(=O)=O)cc2nn1-c1ccc(Br)cc1 [Compound 62]	80	180	50	2860	170						
CNC(=O)c1c2cc(C3CC3)c(N(CCCN3CCCCC3)S(C)(=O)=O)cc2nn1-c1ccc(Oc2ccc(F)cc2)cc1 [Compound 111]		1170	260			2920	1000 to 9990	2050	< 990	340	
CCOC(=O)CCC(=O)NCCCN(c1cc2nn(-c3ccc(Br)cc3)c(C(=O)NC)c2cc1C1CC1)S(C)(=O)=O [Compound 164]		520	40			10	< 990	620	< 990	210	
CNC(=O)c1c2cc(C3CC3)c(N(CCCNC(=O)C(C)C)S(C)(=O)=O)cc2nn1-c1ccc(Br)cc1 [Compound 156]		250	70			210	< 990	1510	< 990	210	
CNC(=O)c1c2cc(C3CC3)c(N(CCCNC(=O)c3ccoc3)S(C)(=O)=O)cc2nn1-c1ccc(Br)cc1 [Compound 160]		70	40			340	< 990	780	< 990	90	
CNC(=O)c1c2cc(C3CC3)c(N(CCCNC(=O)c3cnn(C)c3C)S(C)(=O)=O)cc2nn1-c1ccc(Br)cc1 [Compound 180]		370	50			570	< 990	1110	< 990	140	
CNC(=O)c1c2cc(C3CC3)c(N(CCCO)S(C)(=O)=O)cc2nn1-c1ccc(Nc2ccccc2F)cc1 [Compound 5, 5-cyclopropyl-2-{4-[(2-fluorophenyl)amino]phenyl}-6-[(3-hydroxypropyl)(methylsulfonyl)amino]-N-methyl-2H-indazole-3-carboxamide]		70	40			50	< 990	320	< 990	130	
CNC(=O)c1c2cc(C3CC3)c(N(CCCNC(C)=O)S(C)(=O)=O)cc2nn1-c1ccc(Br)cc1 [Compound 59, 6-{[3-(Acetylamino)propyl](methylsulfonyl)amino}-2-(4-bromophenyl)-5-cyclopropyl-N-methyl-2H-indazole-3-carboxamide]		260	50			300	< 990	1430	< 990	670	
CNC(=O)c1c2cc(C3CC3)c(N(CCCNC(=O)c3cccnc3)S(C)(=O)=O)cc2nn1-c1ccc(Br)cc1 [Compound 191]		430	20			400	< 990	2590	< 990	190	
CNC(=O)c1c2cc(C3CC3)c(N(CCN3CCOCC3)S(C)(=O)=O)cc2nn1-c1ccc(Oc2ccc(F)cc2)cc1 [Compound 112]		410	40			1900	< 990	2730	< 990	130	
CNC(=O)c1c2cc(C3CC3)c(N(CCCN3CCOCC3)S(C)(=O)=O)cc2nn1-c1ccc(Br)cc1 [Compound 200]		220	40			650	< 990	1050	< 990	170	
CNC(=O)c1c2cc(C3CC3)c(N(CCCNC(=O)CCC(=O)OC)S(C)(=O)=O)cc2nn1-c1ccc(Br)cc1 [Compound 66, Methyl 4-[(3-{[2-(4-bromophenyl)-5-cyclopropyl-3-(methylcarbamoyl)-2H-indazol-6-yl](methylsulfonyl)amino}propyl)amino]-4-oxobutanoate]		320				20	< 990	360	< 990	120	80
CNC(=O)c1c2cc(C3CC3)c(N(CCCNC(=O)c3ccoc3)S(C)(=O)=O)cc2nn1-c1ccc(Nc2ccc(F)cc2)cc1 [Compound 120]		110				3690	< 990	14400	< 990	90	80
CCN(c1cc2nn(-c3ccc(Nc4ccc(F)cc4)cc3)c(C(=O)NC)c2cc1C1CC1)S(C)(=O)=O [Compound 22]		110	20			380	< 990	340	< 990	70	
CNC(=O)c1c2cc(C3CC3)c(N(CCCNC(=O)c3ccnc(OC)c3)S(C)(=O)=O)cc2nn1-c1ccc(Br)cc1 [Compound 177]		280	60			110	< 990	310	< 990	70	
CNC(=O)c1c2cc(C3CC3)c(N(CCC3COC(C)(C)OC3)S(C)(=O)=O)cc2nn1-c1ccc(Br)cc1 [Compound 95]	70	70	40	180	50						
CCN(c1cc2nn(-c3ccc(Oc4ccccc4F)cc3)c(C(=O)NC)c2cc1C1CC1)S(C)(=O)=O [Compound 28]		120	20			740	< 990	200	< 990	100	
